Measurements as given in ChEMBL document CHEMBL1123235, “Cholecystokinin antagonists. Synthesis of asperlicin analogues with improved potency and water solubility” (J Med Chem, 1986).

Molecular target: T1, Cholecystokinin receptor (Rattus norvegicus, UniProt P30551+P30553)
T1 sequence (P30551 whole entry): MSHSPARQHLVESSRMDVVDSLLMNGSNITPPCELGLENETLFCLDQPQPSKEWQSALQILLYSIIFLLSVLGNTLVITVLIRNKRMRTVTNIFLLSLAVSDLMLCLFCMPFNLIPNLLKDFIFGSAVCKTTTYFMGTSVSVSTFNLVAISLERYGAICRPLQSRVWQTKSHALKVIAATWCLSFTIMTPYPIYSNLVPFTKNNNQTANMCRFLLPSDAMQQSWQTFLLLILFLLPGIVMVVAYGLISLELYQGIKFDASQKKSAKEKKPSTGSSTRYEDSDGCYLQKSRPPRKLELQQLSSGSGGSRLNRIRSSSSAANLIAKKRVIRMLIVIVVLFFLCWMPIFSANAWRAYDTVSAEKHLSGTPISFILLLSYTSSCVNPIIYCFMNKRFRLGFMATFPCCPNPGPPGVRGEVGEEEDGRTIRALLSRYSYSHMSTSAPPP
T1 sequence (P30553 whole entry): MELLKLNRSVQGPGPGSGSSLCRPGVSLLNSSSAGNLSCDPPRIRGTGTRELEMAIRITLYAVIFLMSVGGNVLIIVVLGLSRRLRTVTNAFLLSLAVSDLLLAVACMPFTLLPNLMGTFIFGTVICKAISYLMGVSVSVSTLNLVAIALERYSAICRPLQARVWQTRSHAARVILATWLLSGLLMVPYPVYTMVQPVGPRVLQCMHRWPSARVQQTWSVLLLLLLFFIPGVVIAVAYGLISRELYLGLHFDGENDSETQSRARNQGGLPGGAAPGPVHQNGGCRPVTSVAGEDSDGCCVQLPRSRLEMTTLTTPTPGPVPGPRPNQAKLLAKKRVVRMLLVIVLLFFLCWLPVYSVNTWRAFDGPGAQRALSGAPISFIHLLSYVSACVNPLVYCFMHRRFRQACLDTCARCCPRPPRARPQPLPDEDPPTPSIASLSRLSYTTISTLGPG
Experiment: Inhibition of [125I]CCK binding to rat pancreatic Cholecystokinin receptor
Type: protein assay

Compound	IC50 [µM]
CC(C)C[C@@H]1N[C@H]2N(C1=O)c1ccccc1[C@]2(C[C@@H]1NC(=O)c2ccccc2-n2c1nc1ccccc1c2=O)OC(=O)CCC(=O)O	85
CCN1[C@H]2N(C(=O)[C@@H]1CC(C)C)c1ccccc1[C@@]2(O)C[C@@H]1NC(=O)c2ccccc2N2C(=O)c3ccccc3NC12 (stereo partly drawn)	0.4
CC(C)C[C@H]1C(=O)N2c3ccccc3[C@@](O)(C[C@@H]3NC(=O)c4ccccc4N4C(=O)c5ccccc5NC34)[C@H]2N1C(=O)CCC(=O)O (stereo partly drawn)	4.3
CC(C)C[C@H]1C(=O)N2c3ccccc3[C@](C[C@@H]3NC(=O)c4ccccc4N4C(=O)c5ccccc5NC34)(OC(=O)CCC(=O)OCc3ccccc3)[C@H]2N1C(=O)OCc1ccccc1 (stereo partly drawn)	100
CC(C)C[C@H]1C(=O)N2c3ccccc3[C@@](O)(C[C@@H]3NC(=O)c4ccccc4N4C(=O)c5ccccc5NC34)[C@H]2N1C(=O)CCC(=O)[O-].[Na+] (stereo partly drawn)	1
CC(C)C[C@@H]1N[C@H]2N(C1=O)c1ccccc1[C@@]2(O)C[C@@H]1NC(=O)c2ccccc2N2C(=O)c3ccccc3NC12 (stereo partly drawn)	0.2
CC(C)C[C@H]1C(=O)N2c3ccccc3[C@@](O)(C[C@@H]3NC(=O)c4ccccc4N4C(=O)c5ccccc5NC34)[C@H]2N1CCCc1ccccc1 (stereo partly drawn)	0.2

More lines, now with the values ahead:

IC50 [µM]	Compound
> 100	CC(C)C[C@H]1C(=O)N2c3ccccc3[C@@](O)(C[C@@H]3NC(=O)c4ccccc4-n4c3nc3ccccc3c4=O)[C@H]2N1C(=O)C(Cc1ccc(OCc2ccccc2)cc1)NC(=O)OC(C)(C)C (stereo partly drawn)
5	CC(C)C[C@H]1C(=O)N2c3ccccc3[C@@](O)(C[C@@H]3NC(=O)c4ccccc4-n4c3nc3ccccc3c4=O)[C@H]2N1C(=O)OCc1ccccc1
100	CC(C)C[C@H]1C(=O)N2c3ccccc3[C@](C[C@@H]3NC(=O)c4ccccc4-n4c3nc3ccccc3c4=O)(OC(=O)CCC(=O)OCc3ccccc3)[C@H]2N1C(=O)OCc1ccccc1
22	CC(=O)N1[C@H]2N(C(=O)[C@@H]1CC(C)C)c1ccccc1[C@@]2(O)C[C@@H]1NC(=O)c2ccccc2-n2c1nc1ccccc1c2=O
> 100	CC(C)C[C@H]1C(=O)N2c3ccccc3[C@@](O)(C[C@@H]3NC(=O)c4ccccc4-n4c3nc3ccccc3c4=O)[C@H]2N1C(=O)C(CCCCNC(=O)OCc1ccccc1)NC(=O)OC(C)(C)C (stereo partly drawn)
> 100	CC(C)C[C@H]1C(=O)N2c3ccccc3[C@@](O)(C[C@@H]3NC(=O)c4ccccc4-n4c3nc3ccccc3c4=O)[C@H]2N1C(=O)CCC(=O)O
4.3	CC(C)C[C@H]1C(=O)N2c3ccccc3[C@@](O)(C[C@@H]3NC(=O)c4ccccc4-n4c3nc3ccccc3c4=O)[C@H]2N1C(=O)C(CCCNC(=O)OCc1ccccc1)NC(=O)OC(C)(C)C (stereo partly drawn)
2.5	CC(C)C[C@H]1C(=O)N2c3ccccc3[C@@](O)(C[C@@H]3NC(=O)c4ccccc4-n4c3nc3ccccc3c4=O)[C@H]2N1C(=O)C(N)CCCCN.Cl (stereo partly drawn)
46	CC(C)C[C@H]1C(=O)N2c3ccccc3[C@@](O)(C[C@@H]3NC(=O)c4ccccc4-n4c3nc3ccccc3c4=O)[C@H]2N1C(=O)C(Cc1ccc(O)cc1)NC(=O)OC(C)(C)C (stereo partly drawn)
1.3	CC(C)C[C@H]1C(=O)N2c3ccccc3[C@@](O)(C[C@@H]3NC(=O)c4ccccc4N4C(=O)c5ccccc5NC34)[C@H]2N1C(=O)C(CCCNC(=O)OCc1ccccc1)NC(=O)OC(C)(C)C (stereo partly drawn)
